Assay results published in US7037656B2, “Methods and compositions for identifying ligands for nuclear receptors” (priority 2000, dated 2006).

Assays:
Test in all cases: Yeast 6x EcRE-lacZ β-galactosidase transactivation assay
[1] = biological target: T1, Dm ΔN EcR +Aa USPa-form + GRIP1 (Drosophila melanogaster, UniProt P34021); type: cell-based, Drosophila melanogaster; Aedes aegypti; conditions: RH 5992 10 μM, 4 hours, DMSO control 0.243
T1 construct: ubiquitin (human, 76 aa) (N, cleaved yes); expressed in transfected cells
Procedure: (§1) Briefly, yeast cells are cultured in 5 mL of YPD liquid medium overnight at 30° C. The cell culture was diluted 1:20 in YPD media and further grown until cell density reached an O.D of 0.6. at OD600. The cells were pelleted by centrifugation and washed with 10 mL of TE+0.1M lithium acetate. Cells are then resuspended in 10 mL TE+0.1M lithium acetate and incubated at 30° C. for 1 hour. Cells are collected and resuspended in 0.5 mL of TE+ 0.1M lithium acetate. Aliquots of cells (50 μL), were incubated for 15 minutes at 30° C. with 1–2 μg plasmid DNA in the presence of 5 μg of denatured salmon sperm DNA as DNA carrier. In the case of co-transformation, the indicated plasmids were added simultaneously. 50% polyethyleneglycol of molecular weight 4000, diluted in TE, was added to a final concentration of 35%. […]
(§2) Using the transformation method set forth above, yeast were co-transformed with a reporter gene as shown in FIG. 2 and the expression vector encoding the full-length D. melanogaster ecdysone receptor, DmEcR (FIG. 3A) in the presence or absence of the Dm EcR heterodimer partner, DmUSP (FIG. 4A). […] As the N-terminal portion of the Dm EcR receptor is reported to play a role in ligand independent transactivation, an expression vector containing an N-terminal deletion in the EcR was constructed (see FIG. 3B) and assessed in the β-galactosidase assays described above. […]

[2] = biological target: T2, Dm ΔN EcR +Aa USPb-form + GRIP1 (Drosophila melanogaster, UniProt P34021); type: cell-based, Drosophila melanogaster; Aedes aegypti; conditions: RH 5992 10 μM, 4 hours, DMSO control 0.251
T2 construct: ubiquitin (human, 76 aa) (N, cleaved yes); expressed in transfected cells
Procedure: as §1, §2

[3] = biological target: T3, Dm ΔN EcR + Dm ΔA/B USP + GRIP1 (Drosophila melanogaster, UniProt P34021); type: cell-based; conditions: RH 5992 10 μM, 4 hours, DMSO control 0.340
T3 construct: ubiquitin (human, 76 aa) (N, cleaved yes); expressed in transfected cells
Procedure: (§3) Briefly, yeast cells are cultured in 5 mL of YPD liquid medium overnight at 30° C. The cell culture was diluted 1:20 in YPD media and further grown until cell density reached an O.D of 0.6. at OD600. The cells were pelleted by centrifugation and washed with 10 mL of TE+0.1M lithium acetate. Cells are then resuspended in 10 mL TE+0.1M lithium acetate and incubated at 30° C. for 1 hour. Cells are collected and resuspended in 0.5 mL of TE+ 0.1M lithium acetate. Aliquots of cells (50 μL), were incubated for 15 minutes at 30° C. with 1–2 μg plasmid DNA in the presence of 5 μg of denatured salmon sperm DNA as DNA carrier. In the case of co-transformation, the indicated plasmids were added simultaneously. 50% polyethyleneglycol of molecular weight 4000, diluted in TE, was added to a final concentration of 35%. DMSO was added to the transformation solution simultaneously to a final concentration 3%. The samples were mixed well by vortexing and incubated for an additional 30 minutes at 30° C. The cell mixture is then heated for 15 minutes at 42° C. Cells were then collected and plated onto appropriate yeast selective media. Transformants of 4 plasmids are selected on the complete media without tryptophan, uracil, leucine and histidine.
(§4) The yeast cells grown overnight in selective liquid media at 30° C. were diluted in prewarmed liquid selective media to 0.1 at OD600 (ODculture). 100 μl of the cell culture was spiked to each well of a.96-well microtiter plate. Ligand (2 μl diluted in DMSO) was added to each well giving a final concentration of DMSO of 2%. As a control, 2 μl of DMSO were also added to additional test wells. The final concentration of the tested compounds in the media is 10 μM. The cells were incubated in the presence of ligand in a shaker at 30° C. After 4 hours of incubation, 100 μl of 2× “Z” Sarcosine-ONPG buffer (120 mM Na2HPO4, 80 mM NaH2PO4, 20 mM KCl, 2 mM MgSO4, 100 mM beta-mercaptoethanol (Sigma), pH 7.0, 0.4% lauroyl sarcosine (Sigma), 4 mg/mL ONPG (Diagnostic Chemicals limited) was added to each well and the plate was further incubated at 37° C. The 2× “Z” Sarcosine-ONPG buffer is freshly prepared or stored at −20° C. prior to use. After incubation at 37° C. for 1 hour. The reaction was stopped by adding 100 μL of quenching solution 0.5 M Na2CO3 and OD405 (ODreaction) and beta-galactosidase activity was measured in a micro plate reader (Biotek) at a wave length of 405–450 nanometers. The effect of copper on enhancement of the transactivation response mediated by the ligands tested was studied by adding CuSO4 to the media to a final concentration of 10 μM.
(§5) Using the transformation method set forth above, yeast were co-transformed with a reporter gene as shown in FIG. 2 and the expression vector encoding the full-length D. melanogaster ecdysone receptor, DmEcR (FIG. 3A) in the presence or absence of the Dm EcR heterodimer partner, DmUSP (FIG. 4A). Transformed cells were incubated with DMSO alone as a control or with a proprietary ecdysone receptor ligand (Rohm & Haas compound RH5992—tebufenozide) at final concentration 10 μM for 4 hours. The samples were then assayed for β-galactosidase activity as described above. […] As the N-terminal portion of the Dm EcR receptor is reported to play a role in ligand independent transactivation, an expression vector containing an N-terminal deletion in the EcR was constructed (see FIG. 3B) and assessed in the β-galactosidase assays described above. […] Restoration of ligand dependent transactivation was observed only when the DmΔN EcR, DmUSP and co-activator GRIP1 were coexpressed. See Table I. The data obtained indicate that the efficiency of ligand-dependent transactivation of the ecdysone receptor requires both heterodimer formation between EcR and USP, and proper interaction with co-activator GRIP1. […]

[4] = biological target: T4, Dm ΔN EcR + DmUSP + GRIP1 (Drosophila melanogaster, UniProt P34021); type: cell-based; conditions: RH 5992 10 μM, 4 hours, DMSO control 0.424
T4 construct: ubiquitin (human, 76 aa) (N, cleaved yes); expressed in transfected cells
Procedure: as §3, §4, §5

Dm ΔN EcR + DmUSP = biological target: T5, Dm ΔN EcR + DmUSP (Drosophila melanogaster, UniProt P34021); type: cell-based; conditions: 4 hours
T5 construct: ubiquitin (human, 76 aa) (N, cleaved yes); expressed in transfected cells
Procedure: as §3, §4, §5

Dm EcR + DmUSP = biological target: T6, Dm EcR + DmUSP (Drosophila melanogaster, UniProt P34021); type: cell-based; conditions: RH 5992 10 μM, 4 hours, DMSO control 2.091
T6 construct: ubiquitin (human, 76 aa) (N, cleaved yes); expressed in transfected cells
Procedure: as §3, §4, §5

Dm EcR-B1 = biological target: T7, Dm EcR-B1 (Drosophila melanogaster, UniProt P34021); type: cell-based; conditions: RH 5992 10 μM, 4 hours, DMSO control 1.090
T7 construct: ubiquitin (human, 76 aa) (N, cleaved yes); expressed in transfected cells
Procedure: as §3, §4, §5

T5 sequence (P34021 221-878 limits assumed, stated change not applied): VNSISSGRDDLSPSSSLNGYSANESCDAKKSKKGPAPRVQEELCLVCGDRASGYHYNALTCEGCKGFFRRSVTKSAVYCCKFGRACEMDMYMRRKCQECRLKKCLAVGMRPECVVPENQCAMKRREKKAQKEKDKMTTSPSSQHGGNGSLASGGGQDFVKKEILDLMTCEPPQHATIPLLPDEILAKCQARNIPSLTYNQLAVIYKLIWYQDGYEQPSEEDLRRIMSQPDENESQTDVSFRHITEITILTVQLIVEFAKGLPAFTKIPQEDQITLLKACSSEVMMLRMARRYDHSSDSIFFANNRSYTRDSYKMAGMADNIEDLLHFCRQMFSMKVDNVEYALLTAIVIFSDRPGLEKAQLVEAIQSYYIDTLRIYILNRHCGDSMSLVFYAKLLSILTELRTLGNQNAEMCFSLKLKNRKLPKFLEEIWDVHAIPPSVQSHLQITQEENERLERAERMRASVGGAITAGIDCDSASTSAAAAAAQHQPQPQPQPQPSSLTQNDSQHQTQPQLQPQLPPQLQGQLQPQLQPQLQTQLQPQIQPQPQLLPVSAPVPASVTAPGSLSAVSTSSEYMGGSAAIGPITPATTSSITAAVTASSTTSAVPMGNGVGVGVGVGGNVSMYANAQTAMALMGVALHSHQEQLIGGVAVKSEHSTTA
T5 sequence (P20153 whole entry partner): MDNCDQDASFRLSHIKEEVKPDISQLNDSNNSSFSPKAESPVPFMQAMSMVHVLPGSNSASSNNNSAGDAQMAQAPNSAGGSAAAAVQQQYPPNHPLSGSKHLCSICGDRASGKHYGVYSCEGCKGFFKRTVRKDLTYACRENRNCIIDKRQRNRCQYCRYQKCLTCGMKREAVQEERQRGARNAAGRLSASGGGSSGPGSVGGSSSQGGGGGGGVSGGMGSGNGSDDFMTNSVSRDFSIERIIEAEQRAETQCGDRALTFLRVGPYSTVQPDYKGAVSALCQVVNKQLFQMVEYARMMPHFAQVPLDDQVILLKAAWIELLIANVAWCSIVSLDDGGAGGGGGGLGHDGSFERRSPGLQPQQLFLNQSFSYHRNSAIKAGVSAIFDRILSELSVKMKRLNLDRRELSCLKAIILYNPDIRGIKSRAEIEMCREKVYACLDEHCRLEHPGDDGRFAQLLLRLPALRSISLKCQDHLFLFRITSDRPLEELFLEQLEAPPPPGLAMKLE
T1 sequence (P34021 221-878, stated change not applied): as the sequence (P34021 221-878 limits assumed, stated change not applied) above
T2 sequence (P34021 221-878, stated change not applied): as the sequence (P34021 221-878 limits assumed, stated change not applied) above
T3 sequence (P34021 221-878, stated change not applied): as the sequence (P34021 221-878 limits assumed, stated change not applied) above
T3 sequence (P20153 with tags, fused parts or gaps partner): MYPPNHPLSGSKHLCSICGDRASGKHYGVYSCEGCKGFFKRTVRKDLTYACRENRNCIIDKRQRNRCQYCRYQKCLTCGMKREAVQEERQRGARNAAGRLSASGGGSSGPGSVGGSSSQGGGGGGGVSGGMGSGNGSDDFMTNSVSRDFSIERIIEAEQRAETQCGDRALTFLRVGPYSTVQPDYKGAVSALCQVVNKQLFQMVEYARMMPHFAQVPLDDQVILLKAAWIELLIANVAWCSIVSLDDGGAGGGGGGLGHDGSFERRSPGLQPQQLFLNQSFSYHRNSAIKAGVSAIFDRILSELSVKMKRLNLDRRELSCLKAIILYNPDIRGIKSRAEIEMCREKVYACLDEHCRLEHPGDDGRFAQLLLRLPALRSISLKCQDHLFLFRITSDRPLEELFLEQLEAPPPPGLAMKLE
T4 sequence (P34021 221-878 limits assumed, stated change not applied): as the sequence (P34021 221-878 limits assumed, stated change not applied) above
T4 sequence (P20153 whole entry partner): as the sequence (P20153 whole entry partner) above
T4 sequence (Q61026 322-1121 partner limits assumed): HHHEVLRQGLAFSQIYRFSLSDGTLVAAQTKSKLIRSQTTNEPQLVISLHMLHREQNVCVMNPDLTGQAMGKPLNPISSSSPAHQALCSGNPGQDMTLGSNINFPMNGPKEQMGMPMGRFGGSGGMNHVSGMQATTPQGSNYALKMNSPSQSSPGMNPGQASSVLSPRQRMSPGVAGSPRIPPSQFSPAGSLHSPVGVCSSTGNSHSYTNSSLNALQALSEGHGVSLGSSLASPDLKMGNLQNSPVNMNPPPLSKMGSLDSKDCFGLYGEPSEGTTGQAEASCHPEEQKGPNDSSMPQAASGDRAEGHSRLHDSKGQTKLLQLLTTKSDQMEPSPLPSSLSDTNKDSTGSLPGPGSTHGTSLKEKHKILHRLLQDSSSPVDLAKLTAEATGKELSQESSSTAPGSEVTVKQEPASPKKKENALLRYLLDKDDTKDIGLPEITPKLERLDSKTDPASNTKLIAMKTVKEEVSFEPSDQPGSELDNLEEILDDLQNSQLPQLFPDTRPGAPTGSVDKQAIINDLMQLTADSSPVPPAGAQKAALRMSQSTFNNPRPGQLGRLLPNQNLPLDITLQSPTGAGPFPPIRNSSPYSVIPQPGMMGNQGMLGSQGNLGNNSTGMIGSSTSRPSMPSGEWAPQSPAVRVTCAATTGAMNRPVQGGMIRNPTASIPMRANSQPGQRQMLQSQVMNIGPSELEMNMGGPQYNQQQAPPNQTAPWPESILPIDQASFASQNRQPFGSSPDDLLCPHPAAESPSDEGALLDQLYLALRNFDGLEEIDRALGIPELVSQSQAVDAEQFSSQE
T6 sequence (P34021 whole entry): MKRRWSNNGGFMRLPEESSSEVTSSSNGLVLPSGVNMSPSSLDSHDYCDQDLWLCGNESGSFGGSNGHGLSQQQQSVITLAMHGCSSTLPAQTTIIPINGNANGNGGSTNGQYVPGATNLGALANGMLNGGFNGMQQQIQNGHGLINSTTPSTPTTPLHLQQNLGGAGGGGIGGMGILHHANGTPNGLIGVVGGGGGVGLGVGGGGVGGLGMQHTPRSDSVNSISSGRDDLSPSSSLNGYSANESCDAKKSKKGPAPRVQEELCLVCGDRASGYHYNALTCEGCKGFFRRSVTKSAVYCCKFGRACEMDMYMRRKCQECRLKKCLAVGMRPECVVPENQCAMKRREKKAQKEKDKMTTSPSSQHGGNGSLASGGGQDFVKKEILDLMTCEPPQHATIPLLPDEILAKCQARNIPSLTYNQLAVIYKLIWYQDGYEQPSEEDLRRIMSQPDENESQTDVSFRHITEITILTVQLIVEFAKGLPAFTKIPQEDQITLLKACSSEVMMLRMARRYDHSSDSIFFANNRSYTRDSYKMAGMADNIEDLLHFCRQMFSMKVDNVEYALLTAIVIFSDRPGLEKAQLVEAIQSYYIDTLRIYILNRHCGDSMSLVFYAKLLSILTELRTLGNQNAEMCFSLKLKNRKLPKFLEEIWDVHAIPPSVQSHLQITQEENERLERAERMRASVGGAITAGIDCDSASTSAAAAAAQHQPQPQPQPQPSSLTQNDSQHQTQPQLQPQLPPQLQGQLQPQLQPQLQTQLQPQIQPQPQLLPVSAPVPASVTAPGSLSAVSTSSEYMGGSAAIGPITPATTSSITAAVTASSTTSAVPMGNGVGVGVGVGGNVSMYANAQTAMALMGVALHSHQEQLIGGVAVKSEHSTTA
T6 sequence (P20153 whole entry partner): as the sequence (P20153 whole entry partner) above
T7 sequence (P34021 whole entry): as the sequence (P34021 whole entry) above

## CCc1ccc(C(=O)NN(C(=O)c2cc(C)cc(C)c2)C(C)(C)C)cc1 [RH 5992, tebufenozide]
[1]
  β-galactosidase activity: 1.860
[2]
  β-galactosidase activity: 2.068
[3]
  β-galactosidase activity: 2.323
[4]
  β-galactosidase activity: 2.537
Dm ΔN EcR + DmUSP; 10 μM, DmEcR with N-terminal deletion, DmUSP present or absent, no GRIP1
  transactivation of the reporter gene (in words): incapable of transactivating the reporter gene
Dm ΔN EcR + DmUSP; RH 5992 10 μM, yeast, Dm ΔN EcR + DmUSP, DMSO control 0.152
  β-galactosidase activity: 0.182
Dm EcR + DmUSP
  β-galactosidase activity: 1.953
Dm EcR-B1
  β-galactosidase activity: 1.200
